How the values were obtained:
coronavirus COVID-19 [1] = type: in vivo, human
coronavirus COVID-19 [2] = type: in vivo; conditions: contact of a positive patient; after 4 days of treatment

SMILES	contraction of COVID-19 under prophylaxis (coronavirus COVID-19 [1]; […], group of elderly travelers on a ship with cases)	test for the virus upon arrival home after the cruise (coronavirus COVID-19 [1]; in vivo)	blood result for COVID-19 virus (coronavirus COVID-19 [2])
CCN(CC)CCCC(C)Nc1ccnc2cc(Cl)ccc12 (stereo not drawn) [chloroquine]	None contract COVID-19 coronavirus	negative	
CCOC(=O)C1=C[C@@H](OC(CC)CC)[C@H](NC(C)=O)[C@@H](N)C1 [osteltamivir, oseltamivir]			positive

— patent US20250057803A1, “PRODUCTS OF MANUFACTURE AND METHODS FOR TREATING, AMELIORATING OR PREVENTING CORONAVIRUS INFECTION” (TOPELIA AUST LIMITED (ACN 652 771 670), priority 2020, published 2025)
